According to article PMC7376644 (Pharmacology Research & Perspectives, 2020):
Values joined by “and” are separate entries in the source; they are usually repeats but may differ in a detail not shown here. Equal entries are not always repeated. Where two headings read alike, the source gives them in different places.

Columns and labels:
[1] = Simcyp prediction of total hepatic clearance; set-up: species or system human
Experimental: The clearance of the incubation mixture was expressed as μL/min/pmol for rCYP.
(§1) The well‐stirred model was used to estimate the hepatic clearance (CLH) due to metabolism.

[2] = PZQ-ketoconazole DDI pharmacokinetic study in healthy volunteers; type: in vivo, human; details: for AUC(0-inf) / AUC / CL/F / k el / half-life / Tmax / Vd/F: male, human, plasma
Experimental: Plasma samples were obtained from the AiBST biobank. […] Each participant served as their own control. Each participant provided written informed consent to take part in the study and the study was carried out according to Helsinki Declaration of 1975, as revised in 2008. The study was approved by the Medical Research Council of Zimbabwe (MRCZ) and the Medicines Controls Authority of Zimbabwe (MCAZ). […] The samples were vortexed for 30 seconds and left under gentle agitation for 25 minutes. […] From the supernatant, 20 μL was injected onto the chiral HPLC system for analysis. […] Detection was done using a UV diode array detector at 210 nm. […] The data were gathered and processed using Agilent OpenLab CDS for Chemstation software version 1.9. Linear calibration curves were plotted as concentration vs peak area ratio for analyte to IS with no weighting. […] The pharmacokinetic (PK) analysis was performed using the WinNonlin program, version 8.2 (Pharsight Corp). […] A non-compartmental approach was used for curve plotting and parameter calculation. The area under the curve (AUC) from time 0 to the last sampling time point (AUCt) was computed using the log-linear trapezoidal rule. The linear trapezoidal rule was used for the ascending part of the PK curve, while the log trapezoidal rule was used for the descending part of the graph. The AUC extrapolated to infinite time was calculated as AUC∞ = AUCt + Ct/K el where Ct is the concentration of the last sample taken and K el is the terminal elimination rate constant. The terminal elimination rate constant K el was determined by least squares regression analysis in the terminal phase of the semi log concentration-time curve. […] Statistical analysis was performed using the GraFit software (version 3.0, Erithacus Software Limited). […] Analysis of variance (ANOVA) was performed on the AUC and C max after transformation of the data to their natural logarithmic (ln) values.

CYP3A4/5 = assay: CYP selective diagnostic inhibition studies in HLM, ketoconazole; type: in vitro ADME, human; details: ketoconazole 10 µmol/L
Experimental: (§2) Reactions were carried out in triplicate in 96 well plates. Each reaction was measured at 2 time points, that is at 0 and 30 minutes. […] Furafylline, KTZ, ticlopidine, and quinidine were used as diagnostic inhibitors for CYP 1A2, 3A4/5, 2C19 and 2D6, respectively. The reactions were initiated by addition of NADPH after a pre‐incubation of 5 minutes at 37°C. All reactions were terminated by the addition of 150 µL ice‐cold ACN. Internal standard (0.2 µmol/L DPZ) was added to ACN prior to termination of the assay. This was followed by centrifugation at 4500 g for 20 minutes. An aliquot (50 µL) supernatant was collected and 5 µL was injected and analyzed by liquid chromatography/tandem mass spectrometry (LC/MS/MS). The percent effect of each inhibitor was the estimated contribution of the inhibited CYP calculated using the relationship below: %contribution=amount remaining with inhibitor‐amount remaining without inhibitor/amount remaining without inhibitor×100.

[3] = Intrinsic clearance, substrate depletion approach; type: in vitro ADME, human; details: human, human liver microsomes, pH 7.4; HLM, 1 µmol/L substrate
Experimental: (§3) The generic conditions were previously described by Masimirembwa and co‐workers. ^24 , ^25 Each reaction mixture consisted of substrate incubated with appropriate enzyme, substrate, and NADPH in potassium phosphate buffer pH 7.4 in a final volume of 200 µL. The substrate was diluted to 40% ACN so that the percent organic component in the final solution was maintained at 1%. The reactions were quenched with 3 volumes of stop solution containing ACN and 0.8% formic acid at 0, 5, 10, 20, 30, 40, and 60 minutes. This was followed by centrifugation at 4500 g for 20 minutes. An aliquot (50 µL) supernatant was collected and diluted (1:1) in water prior to LC‐MS/MS analysis.
(§4) Each reaction was monitored over 7 time points.
as §1

HLM = assay: Intrinsic clearance, substrate depletion approach; type: in vitro ADME, human; details: HLM, substrate depletion
Experimental: as §3, §4, §1

CYP2D6 = assay: CYP selective diagnostic inhibition studies in HLM, quinidine; type: in vitro ADME, human; details: quinidine 10 µmol/L
Experimental: as §2

CYP2C19 = CYP2C19 (Homo sapiens, UniProt P33261); assay: Enzyme kinetics of hydroxylated metabolites formation; type: in vitro ADME; set-up: purchased CYPEX CYP008; host or cells: Escherichia coli; details: CYP2C19, formation of cis‐4‐OH‐PZQ
Experimental: The reactions were carried out in duplicate at each time point. Incubation conditions used for the determination of K M and V max were optimized for linearity with respect to time and protein concentrations. […] Metabolites were analyzed by LC‐MS/MS as described below. The K M and V max values of each marker substrate were determined using nonlinear least squares regression analysis in GraFit software (version 3.0, Erithacus Software Limited) and SigmaPlot Enzyme Kinetics Module for Windows 7.0 (SPSS, Inc).
as §1

[4] = PZQ + ketoconazole vs PZQ alone
[5] = PZQ + ketoconazole vs PZQ alone, listed as S‐Praziquantel
[6] = single oral 20 mg/kg PZQ alone, n = 9, listed as S‐Praziquantel, 20 mg/kg

CYP2C19, sequence (P33261 whole entry): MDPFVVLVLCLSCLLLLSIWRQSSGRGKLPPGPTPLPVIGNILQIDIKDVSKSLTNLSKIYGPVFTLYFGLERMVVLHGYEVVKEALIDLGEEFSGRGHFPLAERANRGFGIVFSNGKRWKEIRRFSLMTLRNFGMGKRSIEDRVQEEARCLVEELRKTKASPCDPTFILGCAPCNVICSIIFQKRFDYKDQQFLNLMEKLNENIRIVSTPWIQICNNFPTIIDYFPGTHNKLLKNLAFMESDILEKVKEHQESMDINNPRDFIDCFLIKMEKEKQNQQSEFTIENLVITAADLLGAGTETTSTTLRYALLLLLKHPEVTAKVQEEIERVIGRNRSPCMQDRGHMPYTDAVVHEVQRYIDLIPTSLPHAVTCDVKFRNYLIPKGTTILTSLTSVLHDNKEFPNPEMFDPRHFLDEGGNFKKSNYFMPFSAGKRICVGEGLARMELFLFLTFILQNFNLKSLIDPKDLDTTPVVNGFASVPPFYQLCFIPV

Predicted total CLH (Simcyp) ([1]; metabolite formation assay): 10.144 mL/min/kg
Predicted total CLH (Simcyp) ([1]; substrate depletion assay): 6.265 mL/min/kg
Clearance/F, treatment mean (SD) ([2]; 20 mg/kg PZQ plus 200 mg ketoconazole, n = 9): 211.5 (74.47) L/h
AUCinf, difference observed % [2, 4]: 68%
AUCt0‐tlast, difference observed % [2, 4]: 56.09%
C max, difference observed % [2, 4]: 107.11%
Clearance/F, difference observed % [2, 4]: −37.81%
Half life, difference observed % [2, 4]: 31.52%
AUCinf, difference observed % [2, 5]: 67.71%
C max, difference observed % [2, 5]: 107.1%
AUC(0-inf) ([2]; oral, 20 mg/kg, 20 mg/kg PZQ plus 200 mg ketoconazole, n = 9, read-out: AUCinf, treatment geo mean): 5960 ng·h/mL
AUC(0-inf) ([2]; oral, 20 mg/kg, 20 mg/kg PZQ plus 200 mg ketoconazole, n = 9, read-out: AUCinf, treatment mean (SD)): 6460 ng·h/mL
AUC ([2]; oral, 20 mg/kg, 20 mg/kg PZQ plus 200 mg ketoconazole, n = 9, read-out: AUCt0‐tlast, treatment geo mean): 4680 ng·h/mL
AUC ([2]; oral, 20 mg/kg, 20 mg/kg PZQ plus 200 mg ketoconazole, n = 9, read-out: AUCt0‐tlast, treatment mean (SD)): 4910 ng·h/mL
CL/F ([2]; oral, 20 mg/kg, 20 mg/kg PZQ plus 200 mg ketoconazole, n = 9, read-out: Clearance/F, treatment geo mean (converted)): 3340 mL/min
CL/F ([2]; oral, 20 mg/kg, 20 mg/kg PZQ plus 200 mg ketoconazole, n = 9, read-out: Clearance/F, treatment mean (SD) (converted)): 3530 mL/min
k el ([2]; oral, 20 mg/kg, 20 mg/kg PZQ plus 200 mg ketoconazole, n = 9, read-out: Elimination rate constant, treatment geo mean (converted)): 6.11e-05 s⁻¹
k el ([2]; oral, 20 mg/kg, 20 mg/kg PZQ plus 200 mg ketoconazole, n = 9, read-out: Elimination rate constant, treatment mean (SD) (converted)): 6.94e-05 s⁻¹
half-life ([2]; oral, 20 mg/kg, 20 mg/kg PZQ plus 200 mg ketoconazole, n = 9, read-out: Half life, treatment geo mean (converted)): 3.17 h
half-life ([2]; oral, 20 mg/kg, 20 mg/kg PZQ plus 200 mg ketoconazole, n = 9, read-out: Half life, treatment mean (SD) (converted)): 3.63 h
Tmax ([2]; oral, 20 mg/kg, 20 mg/kg PZQ plus 200 mg ketoconazole, n = 9, read-out: T max, treatment geo mean): 2.35 h
Tmax ([2]; oral, 20 mg/kg, 20 mg/kg PZQ plus 200 mg ketoconazole, n = 9, read-out: T max, treatment mean (SD)): 2.44 h
Vd/F ([2]; oral, 20 mg/kg, 20 mg/kg PZQ plus 200 mg ketoconazole, n = 9, read-out: V d/F, treatment geo mean): 915 L
Vd/F ([2]; oral, 20 mg/kg, 20 mg/kg PZQ plus 200 mg ketoconazole, n = 9, read-out: V d/F, treatment mean (SD)): 967 L
AUC ([2]; oral, 20 mg/kg, AUC, PZQ alone): 3850 ± 1430 ng·h/mL
AUC ([2]; oral, 20 mg/kg, read-out: AUC from the in vivo pharmacokinetic study): 3300 ng·h/mL
AUC ([2]; oral, AUC, PZQ + KTZ): 6460 ± 3100 ng·h/mL
AUC(0-inf) ([2]; po, 20 mg/kg, single oral 20 mg/kg PZQ alone, n = 9, read-out: AUCinf, reference geo mean): 3610 ng·h/mL
AUC(0-inf) ([2]; po, 20 mg/kg, single oral 20 mg/kg PZQ alone, n = 9, read-out: AUCinf, reference mean (SD)): 3850 ng·h/mL
AUC ([2]; po, 20 mg/kg, single oral 20 mg/kg PZQ alone, n = 9, read-out: AUCt0‐tlast, reference geo mean): 2970 ng·h/mL
AUC ([2]; po, 20 mg/kg, single oral 20 mg/kg PZQ alone, n = 9, read-out: AUCt0‐tlast, reference mean (SD)): 3150 ng·h/mL
CL/F ([2]; po, 20 mg/kg, single oral 20 mg/kg PZQ alone, n = 9, read-out: Clearance/F, reference geo mean (converted)): 5480 mL/min
CL/F ([2]; po, 20 mg/kg, single oral 20 mg/kg PZQ alone, n = 9, read-out: Clearance/F, reference mean (SD) (converted)): 5670 mL/min
k el ([2]; po, 20 mg/kg, single oral 20 mg/kg PZQ alone, n = 9, read-out: Elimination rate constant, reference geo mean (converted)): 8.33e-05 s⁻¹
k el ([2]; po, 20 mg/kg, single oral 20 mg/kg PZQ alone, n = 9, read-out: Elimination rate constant, reference mean (SD) (converted)): 0.0001 s⁻¹
half-life ([2]; po, 20 mg/kg, single oral 20 mg/kg PZQ alone, n = 9, read-out: Half life, reference geo mean (converted)): 2.3 h
half-life ([2]; po, 20 mg/kg, single oral 20 mg/kg PZQ alone, n = 9, read-out: Half life, reference mean (SD) (converted)): 2.76 h
Tmax ([2]; po, 20 mg/kg, single oral 20 mg/kg PZQ alone, n = 9, read-out: T max, reference geo mean): 2.96 h
Tmax ([2]; po, 20 mg/kg, single oral 20 mg/kg PZQ alone, n = 9, read-out: T max, reference mean (SD)): 3 h
Vd/F ([2]; po, 20 mg/kg, single oral 20 mg/kg PZQ alone, n = 9, read-out: V d/F, reference geo mean): 1090 L
Vd/F ([2]; po, 20 mg/kg, single oral 20 mg/kg PZQ alone, n = 9, read-out: V d/F, reference mean (SD)): 1200 L
Clearance/F, reference mean (SD) ([2]; single oral 20 mg/kg PZQ alone, n = 9, 20 mg/kg): 340 ± 97 L/h
C max, reference mean (SD) [2, 6]: 782.9 (171.7) ng/mL
Clearance/F, reference mean (SD) [2, 6]: 340.1 (96.37) L/h
Contribution of CYP3A4/5 (CYP3A4/5): 131%
half-life at 1 µmol/L [3]: 0.492 h
Predicted CLuH,int (HLM): 97.50 mL/min/kg
Predicted CLH (HLM; well‐stirred model): 10.78 mL/min/kg
Contribution of CYP2D6 (CYP2D6): 54%
CLuH,int (CYP2C19): 2.44 mL/min/kg and 2.440 mL/min/kg
Structure (SMILES): O=C(C1CCCCC1)N1CC(=O)N2CCc3ccccc3[C@H]2C1 [S‐PZQ, S‐Praziquantel]
